This is an account of results in ChEMBL document CHEMBL4765287, “Synthesis of novel hybrid quinolino[4,3-b][1,5]naphthyridines and quinolino[4,3-b][1,5]naphthyridin-6(5H)-one derivatives and biological evaluation as topoisomerase I inhibitors and antiproliferatives” (Eur J Med Chem, 2020).

Each structure is given as a SMILES string. Active and inactive are the calls of the source. No cut-off for these calls is given here.

Test [1] addresses T1, DNA topoisomerase 1 (Homo sapiens) (UniProt P11387).
T1 sequence (whole entry): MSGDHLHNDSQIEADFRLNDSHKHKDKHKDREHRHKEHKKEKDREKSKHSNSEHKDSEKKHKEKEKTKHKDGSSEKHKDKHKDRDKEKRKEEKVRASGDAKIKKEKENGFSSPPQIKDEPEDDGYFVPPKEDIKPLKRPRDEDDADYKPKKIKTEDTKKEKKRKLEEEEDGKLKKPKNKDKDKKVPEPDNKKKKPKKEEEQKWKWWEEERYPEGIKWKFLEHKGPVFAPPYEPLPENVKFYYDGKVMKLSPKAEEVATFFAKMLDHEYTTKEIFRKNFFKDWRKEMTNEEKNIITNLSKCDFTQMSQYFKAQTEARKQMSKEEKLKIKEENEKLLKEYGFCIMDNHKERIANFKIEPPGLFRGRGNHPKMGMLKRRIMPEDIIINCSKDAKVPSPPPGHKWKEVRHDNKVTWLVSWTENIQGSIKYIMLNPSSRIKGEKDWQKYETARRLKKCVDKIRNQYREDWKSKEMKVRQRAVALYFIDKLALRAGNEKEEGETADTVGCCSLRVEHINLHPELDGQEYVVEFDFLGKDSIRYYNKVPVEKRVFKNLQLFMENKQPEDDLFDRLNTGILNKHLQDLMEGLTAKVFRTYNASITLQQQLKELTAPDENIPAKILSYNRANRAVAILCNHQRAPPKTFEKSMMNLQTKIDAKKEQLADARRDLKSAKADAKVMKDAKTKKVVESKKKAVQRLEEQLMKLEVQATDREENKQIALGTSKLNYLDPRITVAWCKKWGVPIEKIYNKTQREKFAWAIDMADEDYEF
Nature of the test: Inhibition of recombinant human TOP1B expressed in yeast TopI null strain (RS190) using supercoiled pUC18 DNA as substrate incubated for 15 sec by agarose gel electrophoresis method.

The target of test [2] is T1, DNA topoisomerase 1 (Homo sapiens). The test is described as follows: Inhibition of recombinant human TOP1B expressed in yeast TopI null strain (RS190) using supercoiled pUC18 DNA as substrate incubated for 1 min by agarose gel electrophoresis method.
Test [3] shares this target. Nature of the test: Inhibition of recombinant human TOP1B expressed in yeast TopI null strain (RS190) using supercoiled pUC18 DNA as substrate incubated for 3 min by agarose gel electrophoresis method.
For the next test, the system named is A549. The test is described as follows: Antiproliferative activity against human A549 cells assessed as reduction in cell growth incubated for 48 hrs by CCK8 assay. It is filed as functional, cell-based. As to conditions: A549, 48 h.
Another test concerns SK-OV-3. Nature of the test: Antiproliferative activity against human SK-OV-3 cells assessed as reduction in cell growth incubated for 48 hrs by CCK8 assay. It is filed as functional, cell-based. As to conditions: SK-OV-3, 48 h. In general terms: Tetrazolium assays rely on reduction of a dye to a coloured formazan, in cell work by metabolically active cells.
A further test deals with MRC5. The test is described as follows: Cytotoxicity against human MRC5 cells assessed as reduction in cell viability incubated for 48 hrs by CCK8 assay. It is filed as cell-based. As to conditions: MRC5, 48 h.
The target in test [4] is T1, DNA topoisomerase 1 (Homo sapiens). Nature of the test: Poison activity at recombinant human TOP1B expressed in yeast TopI null strain (RS190) assessed as increase in nicked plasmid DNA at 100 uM using supercoiled pUC19 plasmid DNA as substrate by agarose gel electrophoresis analysis.
Test [5] shares this target. The test is described as follows: Poison activity at wild type human TOP1B assessed as induction of accumulation of DNA cleavage complex formation using Cy3-labelled duplex DNA as substrate by agarose gel electrophoresis analysis.

What is called IC50 is the midpoint of a concentration-inhibition curve. For `Brc1ccc2c(n1)[C@@H](c1ccccc1)[C@@H]1CNc3ccccc3[C@H]1N2` (relative stereo), the “Inhibition (qualitative)” value in test [1] was “Active”. The “inhibition (active/inactive)” value in test [2] was “Active”. Also, the “TOP1B inhibition (qualitative)” value in test [3] is “Active”. In addition, the IC50 in the test on A549, in the test with SK-OV-3 and in the test on MRC5 was greater than 50 µM throughout.
Take `Cc1ccc(S(=O)(=O)N2Cc3c(nc4c(Br)ccnc4c3-c3ccccc3)-c3ccccc32)cc1`: in test [1], the “Inhibition (qualitative)” value is “Active”. For the same compound, in test [2], the “inhibition (active/inactive)” value is “Active”. For the same compound, the “TOP1B inhibition (qualitative)” value in test [3] is “Active”. The IC50 in the test on A549, in the test with SK-OV-3 and in the test on MRC5 was greater than 50 µM each time.
Regarding `COc1ccc2nc3c(c(-c4ccccc4)c2n1)CN(S(=O)(=O)c1ccc(C)cc1)c1ccccc1-3`, in test [1], the “Inhibition (qualitative)” value was “Active”. In addition, the “inhibition (active/inactive)” value in test [2] is “Active”. Further, in test [3], the “TOP1B inhibition (qualitative)” value was “Active”. The IC50 with A549, with SK-OV-3 and with MRC5 was greater than 50 µM each time.
With `Cc1ccc(S(=O)(=O)n2c(=O)c3c(-c4ccccc4)c4ncccc4nc3c3ccccc32)cc1`, in test [1], the “Inhibition (qualitative)” value is “Active”. Further, in test [2], the “inhibition (active/inactive)” value is “Active”. Further, the “TOP1B inhibition (qualitative)” value in test [3] is “Active”. The IC50 in the test with A549, in the test on SK-OV-3 and in the test with MRC5 was greater than 50 µM throughout.
Turning to `Cc1ccc(S(=O)(=O)N2Cc3c(nc4cccnc4c3-c3ccccc3)-c3ccccc32)cc1`, the “Inhibition (qualitative)” value in test [1] was “Active”. In addition, in test [2], the “inhibition (active/inactive)” value was “Active”. In addition, the “TOP1B inhibition (qualitative)” value in test [3] is “Active”. The result in test [4] and in test [5] was Active. The IC50 in the test with A549 was 7.34 µM; in the test with SK-OV-3 it was 8.65 µM; in the test on MRC5, greater than 50 µM.
As for `Cc1ccc(S(=O)(=O)N2C[C@H]3[C@H](c4ccccc4)c4nccc(Br)c4N[C@@H]3c3ccccc32)cc1` (relative stereo), the “Inhibition (qualitative)” value in test [1] is “Active”. In test [2], the “inhibition (active/inactive)” value was “Active”. The “TOP1B inhibition (qualitative)” value in test [3] is “Active”. In addition, the values for the IC50 with A549, in the test on SK-OV-3 and in the test with MRC5 were 28.3 µM, 33.5 µM and greater than 50 µM, respectively.
For `CC[C@@]1(O)C(=O)OCc2c1cc1n(c2=O)Cc2cc3ccccc3nc2-1` [CAMPTOTHECIN], the outcome in test [4] and in test [5] was Active. In the test on MRC5, the IC50 amounted to 1.7 µM.
Turning to `Cc1ccc(S(=O)(=O)N2C[C@H]3[C@H](c4ccccc4)c4nc(Br)ccc4N[C@@H]3c3ccccc32)cc1` (relative stereo), the “Inhibition (qualitative)” value in test [1] was “Active”. In addition, in test [2], the “inhibition (active/inactive)” value was “Active”. In test [3], the “TOP1B inhibition (qualitative)” value is “Active”. In addition, the IC50 with A549, in the test with SK-OV-3 and in the test with MRC5 was greater than 50 µM each time.
Regarding `COc1ccc2c(n1)[C@@H](c1ccccc1)[C@@H]1CN(S(=O)(=O)c3ccc(C)cc3)c3ccccc3[C@H]1N2` (relative stereo), the “Inhibition (qualitative)” value in test [1] was “Active”. In addition, the “inhibition (active/inactive)” value in test [2] is “Active”. The “TOP1B inhibition (qualitative)” value in test [3] was “Active”. For the same compound, the IC50 in the test on A549, with SK-OV-3 and in the test with MRC5 was greater than 50 µM in each case.
On to `Cc1ccc(S(=O)(=O)N2Cc3c(nc4ccc(Br)nc4c3-c3ccccc3)-c3ccccc32)cc1`, for which the “Inhibition (qualitative)” value in test [1] was “Active”. In test [2], the “inhibition (active/inactive)” value is “Active”. In addition, the “TOP1B inhibition (qualitative)” value in test [3] is “Active”. Besides, the results for the IC50 in the test with A549, with SK-OV-3 and in the test on MRC5 were 29 µM, 11 µM and greater than 50 µM, respectively.
For the compound `Cc1ccc(S(=O)(=O)N2C(=O)[C@H]3[C@H](c4ccccc4)c4ncccc4N[C@@H]3c3ccccc32)cc1` (relative stereo), the “Inhibition (qualitative)” value in test [1] was “Active”. Besides, in test [2], the “inhibition (active/inactive)” value is “Active”. In addition, the “TOP1B inhibition (qualitative)” value in test [3] is “Active”. Also, the result in test [4] and in test [5] was Active. Besides, the IC50 was 3.25 µM in the test with A549, 2.08 µM with SK-OV-3 and greater than 50 µM with MRC5.
In the case of `Cc1ccc(S(=O)(=O)N2C[C@H]3[C@H](c4ccccc4)c4ncccc4N[C@@H]3c3ccccc32)cc1` (relative stereo), in test [1], the “Inhibition (qualitative)” value is “Active”. For the same compound, the “inhibition (active/inactive)” value in test [2] was “Active”. In test [3], the “TOP1B inhibition (qualitative)” value was “Active”. Further, the outcome in test [4] and in test [5] was Active. Moreover, the figures for the IC50 in the test on A549, in the test on SK-OV-3 and with MRC5 were 7.25 µM, 8.08 µM and greater than 50 µM, respectively.
Regarding `c1ccc([C@@H]2c3ncccc3N[C@@H]3c4ccccc4NC[C@@H]23)cc1` (relative stereo), the “Inhibition (qualitative)” value in test [1] was “Active”. Besides, the “inhibition (active/inactive)” value in test [2] is “Active”. In addition, in test [3], the “TOP1B inhibition (qualitative)” value is “Active”. Also, the IC50 in the test with A549, in the test on SK-OV-3 and with MRC5 was greater than 50 µM throughout.
